Data published in ChEMBL document CHEMBL1143115, “Synthesis and biological properties of beta-turned Abeta(31-35) constrained analogues” (Bioorg Med Chem Lett, 2008).
pKd: −log10 of the molar value. Where a SMILES comes first, the peptide text is derived from it. [ ]: non-standard residue; d: D form. αMeP = C[C@@]1(C(=O)O)CCCN1; Aze = O=C(O)[C@@H]1CCN1; Aib = CC(C)(N)C(=O)O

Experiments:
[1] = Binding affinity to immobilized amyloid beta 25-35 by Surface plasmon resonance
[2] = Neurotoxicity in Wistar rat neuronal cells assessed as induction of mortality at 10 uM; type: toxicity, cell-based
[3] = Neurotoxicity in Wistar rat neuronal cells assessed as induction of mortality at 100 uM; type: toxicity, cell-based
[4] = Protective effect against beta amyloid oligomers induced toxicity in Wistar rat neuronal cells at 100 uM; type: functional

| Compound | pKd [1] | further results |
| --- | --- | --- |
| CC[C@H](C)[C@H](N)C(=O)N[C@H](C(=O)N1CCC[C@H]1C(=O)N[C@@H](CC(C)C)C(=O)N[C@@H](CCSC)C(N)=O)[C@@H](C)CC (H-IIPLM-NH2) | 2.35 | – |
| CC[C@H](C)[C@H](N)C(=O)N[C@H](C(=O)NCC(=O)N[C@@H](CC(C)C)C(=O)N[C@@H](CCSC)C(=O)O)[C@@H](C)CC (H-IIGLM-OH) | – | Activity [2]: 21% |
| CC[C@H](C)[C@H](N)C(=O)N[C@H](C(=O)N1CC[C@H]1C(=O)N[C@@H](CC(C)C)C(=O)N[C@@H](CCSC)C(N)=O)[C@@H](C)CC (H-II[Aze]LM-NH2) | 2.34 | – |
| CC[C@H](C)[C@H](N)C(=O)N[C@H](C(=O)NCC(=O)N[C@@H](CC(C)C)C(=O)N[C@@H](CCSC)C(N)=O)[C@@H](C)CC (H-IIGLM-NH2) | – | Activity [2]: 10%; Activity [3]: 10% |
| CC[C@H](C)[C@H](N)C(=O)N[C@H](C(=O)NC(C)(C)C(=O)N[C@@H](CC(C)C)C(=O)N[C@@H](CCSC)C(N)=O)[C@@H](C)CC (H-II[Aib]LM-NH2) | 2.59 | Activity [4]: 24% |
| CC[C@H](C)[C@H](N)C(=O)N[C@H](C(=O)N1CCC[C@@]1(C)C(=O)N[C@@H](CC(C)C)C(=O)N[C@@H](CCSC)C(N)=O)[C@@H](C)CC (H-II[αMeP]LM-NH2) | 2.82 | – |
| Nc1c(/N=N/c2ccc(-c3ccc(/N=N/c4cc(S(=O)(=O)O)c5ccccc5c4N)cc3)cc2)cc(S(=O)(=O)O)c2ccccc12 [CONGO RED] | 4.89 | – |
